# Results as given in BindingDB's records for doi:10.1016/S0960-894X(00)80655-1 (1992).
# Biological target: Polyunsaturated fatty acid 5-lipoxygenase (Cavia porcellus)
# Experiment: Inhibition of [14C]arachidonic acid conversion to 5-HETE by broken cell 5-LO isolated from guinea pig PMN
row,IC50,SMILES
1,310 nM,"O=c1c2c([nH]n1CCOc1ccc3ccccc3c1)CCCC2 [2-[2-(Naphthalen-2-yloxy)-ethyl]-2,3a,4,5,6,7-hexahydro-indazol-3-one]"
2,480 nM,"O=c1c2c([nH]n1CCOc1ccc3ccccc3c1)CCC2 [2-[2-(Naphthalen-2-yloxy)-ethyl]-3a,4,5,6-tetrahydro-2H-cyclopentapyrazol-3-one]"
3,57 nM,"Cc1cc(=O)n(CCOc2ccc3c(c2)Nc2ccccc2S3)[nH]1 [5-Methyl-2-[2-(10H-phenothiazin-2-yloxy)-ethyl]-2,4-dihydro-pyrazol-3-one]"
